In brackets after ≈: the same amount, converted by molar mass.
Tests used:
[1] = Solubility of the compound at pH 6.5; type: physicochemical; settings: buffer
[2] = Solubility of the compound at pH 7.4; type: physicochemical; settings: buffer
[3] = target: T1, Serine/threonine-protein kinase B-raf (Homo sapiens, UniProt P15056, V600E); assay: Inhibition of full-length B-Raf V600E mutant
[4] = target: T1, Serine/threonine-protein kinase B-raf; assay: Inhibition of B-Raf V600E mutant-mediated Erk phosphorylation in human MALME-3M cells; type: cell-based

T1 sequence (P15056 2-766 V600E limits assumed): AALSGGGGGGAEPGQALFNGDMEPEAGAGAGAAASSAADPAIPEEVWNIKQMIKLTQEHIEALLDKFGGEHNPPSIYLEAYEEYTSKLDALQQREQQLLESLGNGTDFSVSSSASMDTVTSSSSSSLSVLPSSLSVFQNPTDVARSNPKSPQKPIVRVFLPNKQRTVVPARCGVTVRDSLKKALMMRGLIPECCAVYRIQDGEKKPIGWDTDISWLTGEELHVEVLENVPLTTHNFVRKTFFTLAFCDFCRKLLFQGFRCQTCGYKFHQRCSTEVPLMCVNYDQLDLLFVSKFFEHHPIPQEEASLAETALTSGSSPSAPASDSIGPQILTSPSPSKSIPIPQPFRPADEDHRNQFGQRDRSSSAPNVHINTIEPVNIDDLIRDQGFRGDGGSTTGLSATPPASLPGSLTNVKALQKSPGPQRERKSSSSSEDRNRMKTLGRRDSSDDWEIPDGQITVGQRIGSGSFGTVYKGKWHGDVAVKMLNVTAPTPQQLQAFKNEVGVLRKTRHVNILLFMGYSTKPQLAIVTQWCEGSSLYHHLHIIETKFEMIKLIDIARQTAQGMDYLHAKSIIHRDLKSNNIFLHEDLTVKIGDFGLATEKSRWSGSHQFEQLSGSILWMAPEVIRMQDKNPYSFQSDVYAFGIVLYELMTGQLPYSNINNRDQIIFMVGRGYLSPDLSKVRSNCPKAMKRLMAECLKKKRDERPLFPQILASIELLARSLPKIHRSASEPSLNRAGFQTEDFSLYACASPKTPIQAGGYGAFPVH

SMILES | solubility [1] | solubility [2] | IC50 [3] | IC50 [4]
CCCS(=O)(=O)Nc1ccc(F)c(C(=O)Nc2cnc3[nH]nc(OC)c3c2)c1F | 4 µg/mL (≈ 9.4 µM) | 9 µg/mL (≈ 21.2 µM) | – | –
CCCS(=O)(=O)Nc1ccc(Cl)c(C(=O)Nc2cnc3[nH]nc(OC)c3c2)c1F | < 1 µg/mL | 2 µg/mL (≈ 4.53 µM) | – | –
CCCS(=O)(=O)Nc1ccc(F)c(C(=O)Nc2cnc3[nH]nc(OC)c3c2)c1Cl | < 1 µg/mL | 2 µg/mL (≈ 4.53 µM) | 0.0022 µM | 0.019 µM
CCCS(=O)(=O)Nc1ccc(F)c(C(=O)Nc2cnc3[nH]nc(C(C)C)c3c2)c1F | 6 µg/mL (≈ 13.7 µM) | – | 0.014 µM | 0.089 µM
CCCS(=O)(=O)Nc1ccc(F)c(C(=O)Nc2cnc3[nH]nc(C4CC4)c3c2)c1F | 1 µg/mL (≈ 2.3 µM) | 4 µg/mL (≈ 9.19 µM) | 0.0027 µM | 0.023 µM
CCCS(=O)(=O)Nc1ccc(F)c(C(=O)Nc2cnc3[nH]nc(C4CC4)c3c2)c1Cl | 54 µg/mL (≈ 119 µM) | 127 µg/mL (≈ 281 µM) | 0.0038 µM | 0.033 µM
CC(C)CS(=O)(=O)Nc1ccc(F)c(C(=O)Nc2cnc3[nH]nc(C4CC4)c3c2)c1Cl | 1 µg/mL (≈ 2.15 µM) | < 1 µg/mL | 0.002 µM | 0.018 µM
O=C(Nc1cnc2[nH]nc(C3CC3)c2c1)c1c(F)ccc(NS(=O)(=O)CCCF)c1Cl | 130 µg/mL (≈ 277 µM) | 265 µg/mL (≈ 564 µM) | 0.0006 µM | 0.051 µM
